Assay results published in patent US20210053957A1, “HERBICIDAL COMPOUNDS” (SYNGENTA PARTICIPATIONS AG, priority 2018, published 2021).

How the values were obtained:
Assay in all cases: Post-emergence efficacy, glasshouse spray test
Format in all cases: in vivo
[1] = tested on: Euphorbia heterophylla (EPHHL); settings: Euphorbia heterophylla, post-emergence, 312 h; Application Rate 500 g/Ha; evaluated after 13 days; read-out: Control of weed species after post-emergence application, EPHHL (100=total damage to plant; 0=no damage to plant)
Outline: (§1)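 Plants grown 14 days in glasshouse (24/16 °C day/night, 14 h light, 65% humidity), then sprayed post-emergence with compound formulated in acetone/IF50 emulsifier, diluted in 0.25% or 1% Empicol ESC70 plus 1% ammonium sulphate. Damage scored after 13 days, 0 (none) to 100 (total).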

[2] = tested on: Echinochloa crus-galli (ECHCG); settings: Echinochloa crus-galli, post-emergence, 312 h; Application Rate 500 g/Ha; evaluated after 13 days; read-out: Control of weed species after post-emergence application, ECHCG (100=total damage to plant; 0=no damage to plant)
Outline: as §1

[3] = tested on: Ipomoea hederacea (IPOHE); settings: Ipomoea hederacea, post-emergence, 312 h; Application Rate 500 g/Ha; evaluated after 13 days; read-out: Control of weed species after post-emergence application, IPOHE (100=total damage to plant; 0=no damage to plant)
Outline: as §1

Setaia fabei (SETFA) = settings: Setaria faberi, post-emergence, 312 h; Application Rate 500 g/Ha; evaluated after 13 days; read-out: Control of weed species after post-emergence application, SETFA (100=total damage to plant; 0=no damage to plant)
Outline: as §1

[4] = tested on: Digitaria sanguinalis (DIGSA); settings: Digitaria sanguinalis, post-emergence, 312 h; Application Rate 500 g/Ha; evaluated after 13 days; read-out: Control of weed species after post-emergence application, DIGSA (100=total damage to plant; 0=no damage to plant)
Outline: as §1

Eleusine indica (ELEIN) = settings: Eleusine indica, post-emergence, 312 h; Application Rate 500 g/Ha; evaluated after 13 days; read-out: Control of weed species after post-emergence application, ELEIN (100=total damage to plant; 0=no damage to plant)
Outline: as §1

[5] = tested on: Chenopodium album (CHEAL); settings: Chenopodium album, post-emergence, 312 h; Application Rate 500 g/Ha; evaluated after 13 days; read-out: Control of weed species after post-emergence application, CHEAL (100=total damage to plant; 0=no damage to plant)
Outline: as §1

[6] = tested on: Amaranthus palmeri (AMAPA); settings: Amaranthus palmeri, post-emergence, 312 h; Application Rate 500 g/Ha; evaluated after 13 days; read-out: Control of weed species after post-emergence application, AMAPA (100=total damage to plant; 0=no damage to plant)
Outline: as §1

Lolium perenne (LOLPE) = settings: Lolium perenne, post-emergence, 312 h; Application Rate 500 g/Ha; evaluated after 13 days; read-out: Control of weed species after post-emergence application, LOLPE (100=total damage to plant; 0=no damage to plant)
Outline: as §1

| Compound | pest or weed control at 500 g/ha [1] [%] | pest or weed control at 500 g/ha [2] [%] | pest or weed control at 500 g/ha [3] [%] | pest or weed control at 500 g/ha (Setaia fabei (SETFA)) [%] | pest or weed control at 500 g/ha [4] [%] | pest or weed control at 500 g/ha (Eleusine indica (ELEIN)) [%] | pest or weed control at 500 g/ha [5] [%] | pest or weed control at 500 g/ha [6] [%] | pest or weed control at 500 g/ha (Lolium perenne (LOLPE)) [%] |
| --- | --- | --- | --- | --- | --- | --- | --- | --- | --- |
| O=S(=O)([O-])CC[n+]1ccc(-c2ncn[nH]2)cn1 [Compound A38] | 20 | 10 | 20 | 10 | 20 | 0 | 30 | 20 | 10 |
| Cn1cnc(-c2cc[n+](CCS(=O)(=O)[O-])nc2)n1 [Compound A39] | 90 | 80 | 80 | 90 | 90 | 80 | 90 | 90 | 70 |
| Cc1coc(-c2cc[n+](CCS(=O)(=O)[O-])nc2)n1 [Compound A40] | 100 | 80 | 90 | 80 | 80 | 100 | 100 | 100 | 80 |
| O=S(=O)([O-])CC[n+]1ccc(-c2ccoc2)cn1 [Compound A42] | 30 | 10 | 20 | 10 | 20 | 20 | 40 | 20 | 0 |
| O=C(O)CC[n+]1ccc(-c2ccoc2)cn1 [Compound A43] | 80 | 10 | 20 | 10 | 20 | 10 | 90 | 100 | 0 |
| CNc1nnc(-c2cc[n+](CCS(=O)(=O)[O-])nc2)s1 [Compound A45] | 90 | 40 | 20 | 70 | 50 | 70 | 80 | 100 | 70 |
| Nc1nnc(-c2cc[n+](CCC(=O)O)nc2)s1 [Compound A47] | 100 | 90 | 30 | 90 | 90 | 100 | 100 | 100 | 100 |
| Cn1nncc1-c1cc[n+](CCC(=O)O)nc1 [Compound A48] | 90 | 70 | 90 | 90 | 100 | 70 | 90 | 100 | 40 |
| Cn1nncc1-c1cc[n+](CCS(=O)(=O)[O-])nc1 [Compound A49] | 90 | 60 | 70 | 60 | 70 | 60 | 100 | 100 | 40 |
| Cn1cnnc1-c1cc[n+](CCS(=O)(=O)[O-])nc1 [Compound A50] | 100 | 100 | 70 | 100 | 100 | 70 | 100 | 100 | 80 |
| Cn1cnc(-c2cc[n+](CCC(=O)O)nc2)n1 [Compound A51] | 90 | 90 | 30 | 90 | 90 | 70 | 100 | 100 | 60 |
| O=C(O)CC[n+]1ccc(-c2nc(C(F)(F)F)co2)cn1 [Compound A56] | 90 | 90 | 30 | 80 | 70 | 80 | 80 | 100 | 50 |
| O=S(=O)([O-])CC[n+]1ccc(-c2nc(C(F)(F)F)co2)cn1 [Compound A57] | 90 | 80 | 60 | 60 | 70 | 60 | 100 | 100 | 50 |
| O=S(=O)([O-])CCC[n+]1ccc(-c2ccon2)cn1 [Compound A59] | 100 | 70 | 80 | 80 | 70 | 90 | 90 | 90 | 70 |
| O=S(=O)([O-])CC[n+]1ccc(-c2cnsc2)cn1 [Compound A60] | 50 | 40 | 10 | 50 | 50 | 70 | 90 | 90 | 30 |
| O=S(=O)([O-])CC[n+]1ccc(-c2cscn2)cn1 [Compound A61] | 40 | 50 | 20 | 70 | 80 | 60 | 70 | 100 | 30 |
| O=C(O)CC[n+]1ccc(-c2cnsc2)cn1 [Compound A62] | 40 | 0 | 20 | 0 | 10 | 0 | 20 | 0 | 0 |
| O=C(O)CC[n+]1ccc(-c2ccsc2)cn1 [Compound A63] | 40 | 20 | 20 | 30 | 20 | 20 | 30 | 0 | 10 |
| O=S(=O)([O-])CC[n+]1ccc(-c2ccon2)cn1 [Compound A64] | 100 | 80 | 90 | 80 | 90 | 30 | 90 | 100 | 40 |
| Nc1nnc(-c2cc[n+](CCS(=O)(=O)[O-])nc2)s1 [Compound A65] | 90 | 60 | 60 | 100 | 100 | 100 | 70 | 80 | 90 |
